Values after ≈ are worked out from the molar mass of the structure shown.
Legend:
Format in all cases: physicochemical
[1] = Hygroscopicity (moisture sorption analysis at 25° C.); details: for Hygroscopicity, weight increase: 25° C.
Procedure: The purpose of this assay is to determine the hygroscopicity of the solid forms of the present invention under conditions normally encountered in manufacturing and storage of drug products. Moisture analysis is performed at 25° C. using a TA instrument. The following experimental conditions are used: sample size ˜3-20 mg, dry sample at 0% RH until <0.0 weight change over 10 minutes, 5-95% RH adsorption/desorption range, and 5% RH step interval. The minimum equilibration criterion is <0.01% weight change for 5 minutes.

[2] = Accelerated open-dish physical stability of prototype tablet (XRPD, HPLC)
Procedure: (§1) The purpose of this study is to evaluate the properties of certain solid forms of the present invention with respect to the suitability for manufacturing high drug load tablets. The API flowability is measured using a United States Pharmacopeia method for bulk/tapped density and a powder rheometer. The formula contains ˜64.6 wt % Example 2, 26.4 wt % microcrystalline cellulose (diluent/binder), 5 wt % croscarmellose sodium (disintegrant), 2 wt % sodium stearyl fumarate (lubricant), and 2 wt % silicone dioxide (glidant). The components are combined and tumble blended in a single step at a 40 g scale. The resulting blend is then tested using the same bulk/tapped density and powder rheometry tests. The blend is compressed on a single-station, instrumented tablet press. The accelerated studies are comprised of prototype tablets of methanesulfonic acid dihydrate (Example 2) at a 50% free base equivalence drug load. The tablets are prepared and stored in open-dish containers to evaluate stability. Samples are stored at 40° C./11% RH, 40° C./75% RH, 50° C./22% RH, and 50° C./50% RH. At designated time points the samples are characterized by XRPD for physical form and by HPLC using the following conditions: Column Zorbax Bonus-RP, 3.5-micron, 4.6×75 mm, mobile phase A is 0.1% TFA in water, mobile phase B is 0.1% TFA in ACN, gradient is 95% A at time 0 to 23% A at 9.5 minutes-12.1 minutes, 5% A at time 13-16 minutes, and 95% A at time 16.1 to 20 minutes with a flow rate of 1.5 mL/minute, a column temperature of 30° C., UV at 227 nM, an injection volume of 5 and autosampler at ambient temperature. The drug product formulation stress study under accelerated open dish conditions for methanesulfonic acid dihydrate (Example 2) is depicted in Table 5.

[3] = Formulation assessment: API powder flowability, compressibility, sticking; details: compared to the free base
Procedure: as §1

[4] = Compaction properties / tabletability (Instron compaction, tensile strength); details: for Tensile: 300 mg compact
Procedure: The purpose of this study is to determine the compaction properties of certain solid forms of the present invention. The experimental compaction testing is evaluated on Instron Universal Testing System equipped with a 50 kN load cell using Natoli 10 mm flat round punches and die for material compression. The profiles are generated at 5, 10, and 15 kN with a target tablet weight of 300 mg for each compact. The three compacts are made at each pressure set point while the Instron is traveling at 50 mm/minute. The compacts final weight is measured on a balance. The tablet's diameter and thickness is measured using Mitutoyo Thickness Gauge and hardness testing is completed on a Vankel Hardness tester using axially breakage.

[5] = Equilibrium solubility of crystalline solid forms in simulated fluids (SGF, FaSSIF, FedSSIF); details: for solubility thermodynamic at 24 h: thermodynamic from solid, room temperature
Procedure: The purpose of this assay is to measure the solubility of certain solid forms of the present invention in comparison to 6,6-dimethyl-2-{2-[(1-methyl-1H-pyrazol-5-yl)amino]pyrimidin-4-yl}-5-[2-(morpholin-4-yl)ethyl]-5,6-dihydro-4H-thieno[2,3-c]pyrrol-4-one (free base). pKa Determination is performed using a UV-metric method. The sample is titrated in a fast-UV triple titration between pH 2-12 at a concentration of 31-19 μM under aqueous condition. Subsequently, the sample is titrated in three UV-metric titrations from pH 1.5-10 at a concentration of 30-27 μM with no precipitation and the observed pKa averages are reported.
To determine the solubility of the three different crystal forms, a single aliquot of the test media (2 mL, see table 4) is added to an accurately weighed sample. Samples are mixed at room temperature for a period of 24 hours. If a solution is observed, more crystalline material is added and the suspension is slurried for at least 2 hours, after which, an aliquot is withdrawn, filtered through a 0.45 μm PTFE filter and characterized by HPLC using the following HPLC conditions: Column Waters)(Bridge Phenyl, 4.6×100 mm, 3.5 μm, mobile phase A is 0.% NH4OH in water, mobile phase B is MeOH, diluent is 75% ACN and 25% water, gradient is 50% A at time 0, 25% A at time 10-13 minutes, and 50% A at time 13.1 to 18 minutes with a flow rate of 0.9 mL/minute, a column temperature of 35° C., UV at 225 nM, an injection volume of 5 and autosampler at ambient temperature. The remaining solids are air dried prior to analysis by XRPD. One replicate from each sample has triplicate HPLC analysis. pH Measurement of the solution is performed using calibrated scientific pH equipment. […] The equilibrium solubility in simulated intestinal fluids of the free base (assumed crystalline) compared to the crystalline methanesulfonic acid dihydrate salt (Example 2) and 4-methylbenzenesulfonic acid salt (Example 3), (assumed crystalline) are shown in Table 4.

Compound	Hygroscopicity, weight increase ([1]; 20% RH)	Hygroscopicity, weight increase ([1]; 60% RH) [wt %]	Tensile ([4]; Pressure 64 MPa) [MPa]	Tensile ([4]; Pressure 127 MPa) [MPa]	Tensile ([4]; Pressure 191 MPa) [MPa]	pH of the solution in solubility test ([5]; FaSSIF)	pH of the solution in solubility test ([5]; FedSSIF)	pH of the solution in solubility test ([5]; SGF)	solubility thermodynamic at 24 h ([5]; fessif, FedSSIF) [µg/mL]	solubility thermodynamic at 24 h ([5]; simulated gastric fluid, SGF) [µg/mL]	solubility thermodynamic at 24 h ([5]; FaSSIF) [µg/mL]	further results
CS(=O)(=O)O.Cn1nccc1Nc1nccc(-c2cc3c(s2)C(C)(C)N(CCN2CCOCC2)C3=O)n1 [Example 1, 6,6-Dimethyl-2-{2-[(1-methyl-1H-pyrazol-5-yl)amino]pyrimidin-4-yl}-5-[2-(morpholin-4-yl)ethyl]-5,6-dihydro-4H-thieno[2,3-c]pyrrol-4-one; methanesulfonic acid]	<0.1 wt %	<0.1										Hygroscopicity, weight increase ([1]; 90% RH): ~4 wt %
CS(=O)(=O)O.Cn1nccc1Nc1nccc(-c2cc3c(s2)C(C)(C)N(CCN2CCOCC2)C3=O)n1 [Example 2, 6,6-Dimethyl-2-{2-[(1-methyl-1H-pyrazol-5-yl)amino]pyrimidin-4-yl}-5-[2-(morpholin-4-yl)ethyl]-5,6-dihydro-4H-thieno[2,3-c]pyrrol-4-one; methanesulfonic acid dihydrate]			1.2034	2.1532	2.4082	5.33	5.09	2.62	> 20300	> 9700	> 19000	Physical stability in prototype tablet ([2]; 40° C./11% RH, 7 days): Stable; Physical stability in prototype tablet ([2]; 40° C./11% RH, 14 days): Stable; Physical stability in prototype tablet ([2]; 40° C./75% RH, 7 days): Stable; Physical stability in prototype tablet ([2]; 40° C./75% RH, 14 days): Stable; Physical stability in prototype tablet ([2]; 40° C./75% RH, 30 days): Stable; Physical stability in prototype tablet ([2]; 50° C./22% RH, 7 days): Stable; Physical stability in prototype tablet ([2]; 50° C./22% RH, 14 days): Stable; Physical stability in prototype tablet ([2]; 50° C./22% RH, 30 days): Stable; Physical stability in prototype tablet ([2]; 50° C./50% RH, 7 days): Stable; Physical stability in prototype tablet ([2]; 50° C./50% RH, 14 days): Stable; Physical stability in prototype tablet ([2]; 50° C./50% RH, 30 days): Stable; hygroscopicity profile for drug product manufacturing processes [1]: preferred hygroscopicity profiles; Hygroscopicity, weight increase ([1]; 90% RH, dihydrate): <0.1 wt % increase; compressibility [3]: improved; powder flowability [3]: improved; sticking to tableting tools [3]: reduced sticking; compaction properties compared with excipients ([4]; versus mannitol SD200 and Lactose Anhydrous): in range with excipients; physical stability with respect to solution mediated form conversion ([5]; FaSSIF and FedSSIF): physically stable; solubility compared to the free base ([5]; FaSSIF and FedSSIF): higher solubility
Cc1ccc(S(=O)(=O)O)cc1.Cn1nccc1Nc1nccc(-c2cc3c(s2)C(C)(C)N(CCN2CCOCC2)C3=O)n1 [Example 3, 6,6-Dimethyl-2-{2-[(1-methyl-1H-pyrazol-5-yl)amino]pyrimidin-4-yl}-5-[2-(morpholin-4-yl)ethyl]-5,6-dihydro-4H-thieno[2,3-c]pyrrol-4-one; 4-methylbenzenesulfonic acid]	<0.1 wt %	~0.2				5.44	5.04	2.46	13500	7080	12200	hygroscopicity profile for drug product manufacturing processes [1]: preferred hygroscopicity profiles; Hygroscopicity, weight increase ([1]; 90% RH): ~0.5 wt. % increase wt %; solubility compared to the free base ([5]; FaSSIF and FedSSIF): higher solubility
Cl.Cn1nccc1Nc1nccc(-c2cc3c(s2)C(C)(C)N(CCN2CCOCC2)C3=O)n1 [Example 4, 6,6-Dimethyl-2-{2-[(1-methyl-1H-pyrazol-5-yl)amino]pyrimidin-4-yl}-5-[2-(morpholin-4-yl)ethyl]-5,6-dihydro-4H-thieno[2,3-c]pyrrol-4-one; hydrochloride, reference compound]	~0.4 wt. % wt %	~6										
Cn1nccc1Nc1nccc(-c2cc3c(s2)C(C)(C)N(CCN2CCOCC2)C3=O)n1 [Free base, 6,6-Dimethyl-2-{2-[(1-methyl-1H-pyrazol-5-yl)amino]pyrimidin-4-yl}-5-[2-(morpholin-4-yl)ethyl]-5,6-dihydro-4H-thieno[2,3-c]pyrrol-4-one, reference compound]			0.5415	1.0491	1.6394	6.70	5.36	5.05	5650 (≈ 12.5 mM)	3700 (≈ 8.16 mM)	130 (≈ 0.287 mM)	

Further lines, with some results ahead:

Hygroscopicity, weight increase ([1]; 20% RH)	Hygroscopicity, weight increase ([1]; 60% RH) [wt %]	Tensile ([4]; Pressure 64 MPa) [MPa]	Tensile ([4]; Pressure 127 MPa) [MPa]	Tensile ([4]; Pressure 191 MPa) [MPa]	pH of the solution in solubility test ([5]; FaSSIF)	pH of the solution in solubility test ([5]; FedSSIF)	pH of the solution in solubility test ([5]; SGF)	solubility thermodynamic at 24 h ([5]; fessif, FedSSIF) [µg/mL]	solubility thermodynamic at 24 h ([5]; simulated gastric fluid, SGF) [µg/mL]	solubility thermodynamic at 24 h ([5]; FaSSIF) [µg/mL]	Compound	further results
		0.9687		3.1671							OC[C@H]1O[C@@H](O[C@H]2[C@H](O)[C@@H](O)C(O)O[C@@H]2CO)[C@H](O)[C@@H](O)[C@H]1O (some centres unmarked) [Lactose Anhydrous]	Tensile ([4]; Pressure 128 MPa): 1.9119 MPa
		0.4873	1.1966	2.1411							OC[C@@H](O)[C@@H](O)[C@H](O)[C@H](O)CO [Mannitol SD200]	
